{"source": "paper PMC5770598", "about": "“Small molecules targeted to the microtubule–Hec1 interaction inhibit cancer cell growth through microtubule stabilization” (Oncogene, 2017)", "key": {"[1]": {"target": "T1, MTs (assembled microtubules)", "T1 construct": "gene alpha-tubulin; assembled microtubules (polymer of alpha/beta-tubulin dimers), 6050 RU amine-coupled to COOH5 chip", "assay": "SPR, steady-state Scatchard plot", "type": "binding", "conditions": "microtubules immobilised on COOH5 chip; pH 7.4, 10 mM Hepes, 150 mM NaCl, 2 mM MgCl2, 0.05% P20, 2% DMSO; error printed as ±0.1"}, "[2]": {"target": "T2, tubulin (dimeric)", "T2 construct": "gene alpha-tubulin; unassembled alpha/beta-tubulin dimer, 3900 RU amine-coupled to COOH5 chip", "assay": "SPR, steady-state Scatchard plot", "type": "binding", "conditions": "tubulin dimers immobilised on COOH5 chip; pH 7.4, 10 mM Hepes, 150 mM NaCl, 2 mM MgCl2, 0.05% P20, 2% DMSO"}}, "data": [{"compound": "O=C(/C=C/c1cn(CC(O)CN2CCCCC2)c2ccccc12)c1ccc(Br)cc1", "note": "(centres unmarked) [SM15]", "values": [{"measurement": "Kd", "setting": "[1]", "value": "0.94 ± 0.13", "unit": "µM"}, {"measurement": "Kd", "setting": "[2]", "value": "1.8 ± 0.4", "unit": "µM"}]}]}
